Measured values taken from PMC8033486 (Frontiers in Pharmacology, 2021).
Entries after “also recorded” stand apart in the source; their conditions may differ. Where a name gives a salt, the structure may show the parent alone. Read-outs that look alike come from different tables or passages of the source.

How the values were obtained:
in vitro = conditions: African green monkey
SARS-CoV-2 [1] = assay: microbe, parasite or virus in culture; format: cell-based; conditions: for Inhibition of SARS-CoV-2-induced cytopathic effect, result in words: Vero E6; for IC50: read-out: IC50 (Mean +/- SD)
[2] = test system: lentiviruses pseudotyped with SARS-CoV-2 Spike; format: cell-based
[3] = test system: lentiviruses pseudotyped with SARS-CoV-2 Spike; format: cell-based; remark: listed apart in the source
SARS-CoV-2 [4] = format: cell-based; conditions: Vero E6, day 3 post-infection, non-toxic concentrations
[5] = CC50, Vero E6, no virus, 3 days

CCN1CCN(Cc2ccc(Nc3ncc(F)c(-c4cc(F)c5nc(C)n(C(C)C)c5c4)n3)nc2)CC1 [Abenaciclib]
CC50 (Vero E6 cells; Vero E6, no virus, 3 days): > 1 µM

CCOC(=O)c1c(CSc2ccccc2)n(C)c2cc(Br)c(O)c(CN(C)C)c12 [Arbidol HCl]
CC50 at 3 days (in vitro; [5]): > 40 µM | Inhibition of SARS-CoV-2-induced cytopathic effect, result in words (SARS-CoV-2 [1]): failed to protected Vero E6 cells from SARS-CoV-2 induced cytopathic effect | Block of SARS-CoV-2 Spike pseudovirus entry, result in words [2]: partial blocking effect

COC(=O)N[C@H](C(=O)N[C@@H](Cc1ccccc1)[C@@H](O)CN(Cc1ccc(-c2ccccn2)cc1)NC(=O)[C@@H](NC(=O)OC)C(C)(C)C)C(C)(C)C.O=S(=O)(O)O [Atazanavir Sulfate]
IC50 (Mean +/- SD) (SARS-CoV-2 [1]): Not Active | CC50 (Vero E6 cells; Vero E6, no virus, 3 days): > 20 µM

CCCNC(=O)[C@H]1O[C@@H]1C(=O)N[C@H](C(=O)N1CCC[C@H]1C(=O)OC)[C@@H](C)CC [CA-074-Me]
IC50 (Mean +/- SD) (SARS-CoV-2 [1]): Not Active | Inhibition of SARS-CoV-2-induced cytopathic effect, result in words (SARS-CoV-2 [1]): could not be confirmed using the specific cathepsin B inhibitor CA-074-Me due to drug-associated toxicity | Block of SARS-CoV-2 Spike pseudovirus entry, result in words [2]: partial blocking effect | CC50 (Vero E6 cells; Vero E6, no virus, 3 days): > 34 µM

CN(C)C(=O)COC(=O)Cc1ccc(OC(=O)c2ccc(NC(=N)N)cc2)cc1 [Camostat]
Block of SARS-CoV-2 Spike pseudovirus entry, result in words [3]: activity was rescued | CC50 (in vitro): > 100 µM | Inhibition of SARS-CoV-2-induced cytopathic effect, result in words (SARS-CoV-2 [1]): no antiviral effect on Vero E6 cells | Block of SARS-CoV-2 Spike pseudovirus entry, result in words [2]: failed to inhibit viral fusion; also recorded: displays no activity

Cl.Cl.O=C(O)COCCN1CCN(C(c2ccccc2)c2ccc(Cl)cc2)CC1 (centres unmarked) [Cetirizine dihydorcloride]
IC50 (Mean +/- SD) (SARS-CoV-2 [1]): Not Active | CC50 (Vero E6 cells): > 100 µM

CCN(CC)CCCC(C)Nc1ccnc2cc(Cl)ccc12 (centres unmarked) [Chloroquine]
Block of SARS-CoV-2 Spike pseudovirus entry, result in words [3]: reduced its inhibitory activity | IC50 (SARS-CoV-2 [1]; Severe acute respiratory syndrome coronavirus 2, Vero C1008, 72 h): 3.9 µM | IC50 (SARS-CoV-2 [1]): 3.86 µM

CC(C)C(=O)OCC(=O)[C@@]12O[C@H](C3CCCCC3)O[C@@H]1C[C@H]1[C@@H]3CCC4=CC(=O)C=C[C@]4(C)[C@H]3[C@@H](O)C[C@@]12C [Ciclesonide]
CC50 at 3 days (in vitro; CC50): > 20 µM | Inhibition of SARS-CoV-2-induced cytopathic effect, result in words (SARS-CoV-2 [1]): failed to protected Vero E6 cells from SARS-CoV-2 induced cytopathic effect | Block of SARS-CoV-2 Spike pseudovirus entry, result in words [2]: partial blocking effect

CCOC(=O)[C@H]1O[C@@H]1C(=O)N[C@@H](CC(C)C)C(=O)NCCC(C)C [E-64d]
IC50 (Mean +/- SD) (SARS-CoV-2 [1]): partialy active at 100 | Inhibition of SARS-CoV-2-induced cytopathic effect, result in words (SARS-CoV-2 [1]): partial inhibitory activity | Block of SARS-CoV-2 Spike pseudovirus entry, result in words [2]: active when TMPRSS2 is not present | CC50 (Vero E6 cells; Vero E6, no virus, 3 days): > 100 µM

CC(C)OC(=O)C(C)(C)Oc1ccc(C(=O)c2ccc(Cl)cc2)cc1 [Fenofibrate]
CC50 at 3 days (in vitro): > 100 µM | Block of SARS-CoV-2 Spike pseudovirus entry, result in words [2]: viral entry was abrogated | SARS-CoV-2 release to the supernatant (nucleoprotein ELISA), result in words (SARS-CoV-2 [4]): less active inhibiting viral release as compared to the rest of the inhibitors tested

CCCCN1C[C@H](O)[C@@H](O)[C@H](O)[C@H]1CO [NB-DNJ]
IC50 (Mean +/- SD) (SARS-CoV-2 [1]): active at 100 | Inhibition of SARS-CoV-2-induced cytopathic effect, result in words (SARS-CoV-2 [1]): decreased SARS-CoV-2 cytopathic effect | Block of SARS-CoV-2 Spike pseudovirus entry, result in words [2]: failed to block viral entry | CC50 (Vero E6 cells; Vero E6, no virus, 3 days): > 100 µM

C[C@@H]1CCN(C(=O)CC#N)C[C@@H]1N(C)c1ncnc2[nH]ccc12 [Tofacitinib]
CC50 at 3 days (in vitro; [5]): > 100 µM | Inhibition of SARS-CoV-2-induced cytopathic effect, result in words (SARS-CoV-2 [1]): failed to protected Vero E6 cells from SARS-CoV-2 induced cytopathic effect

CCCCOc1nc(N)c2c(n1)N(Cc1cccc(CN3CCCC3)c1)CC(=O)N2 [Vesatolimod]
CC50 at 3 days (in vitro; [5]): > 20 µM | Inhibition of SARS-CoV-2-induced cytopathic effect, result in words (SARS-CoV-2 [1]): not able to protect from the viral-induced cytopathic effect

Alpha-1 Antitrypsin
Inhibition of SARS-CoV-2-induced cytopathic effect, result in words (SARS-CoV-2 [1]): exerted an effect but required high concentrations | IC50, result in words (SARS-CoV-2 [1]; Vero E6, cytopathic effect): active at 12.5 | CC50 (Vero E6 cells; Vero E6, no virus): > 12.5 mg/mL

B1: interferon-γ (protein, UniProt P01579 24-161, looked up)
Interferon gamma: QDPYVKEAENLKKYFNAGHSDVADNGTLFLGILKNWKEESDRKIMQSQIVSFYFKLFKNFKDDQSIQKSVETIKEDMNVKFFNSNKKKRDDFEKLTNYSVTDLNVQRKAIHELIQVMAELSPAAKTGKRKRSQMLFRG
CC50 (Vero E6 cells; interferons, Vero E6, no virus, 3 days): > 100 × 10^2 IU/mL
